This is an account of results in patent publication US8426462B2, “Ferrocene derivatives with anticancer activity” (Centre National de la Recherche Scientifique (CNRS), priority 2008, dated 2013).

Assay [1] relates to MDA-MB-231 cells (non-hormone-dependent breast cancer cells). The settings on record: read-out: Antiproliferative effect (IC50). Here is the method: (§1) The antiproliferative effects of compounds of the invention were tested on MDA-MB-231 cells, which are non-hormone-dependent breast cancer cells, on PC-3 cells, which are non-hormone-dependent prostate cancer cells and on MCF-7 cells, which are hormone-dependent breast cancer cells.
(§2) The experimental method used for this test is described in Hillard E. A. et al. Chem. Med. Chem. 2006, 1, 551-559.

Assay [2] concerns MCF-7 cells (hormone-dependent breast cancer cells containing ERα). In words: Proliferative/antiproliferative effect on MCF-7 cells. In kind it is cell-based. The following applies: for proliferative effect based on the control: MCF-7, without phenol red, 10^−8M; for IC50: MCF-7, approximate, estrogen effect plus cytotoxic activity, read-out: IC50 on MCF-7 line (converted). The text has this:
The purely cytotoxic effect appears at higher concentrations where the resultant of the two components (estrogen effect plus cytotoxic activity) is therefore evidenced. It is thus difficult to achieve very accurate IC50 values for the MCF-7 line.

The test system of assay [3] is PC-3 cells (non-hormone-dependent prostate cancer cells). The following applies: read-out: Antiproliferative effect (IC50). The method, then: as §1, §2

On to “1,1′-[1-[1,1-bis(4-hydroxyphenyl)methylidene]-2-methyltrimethylene]ferrocene [Compound 11]”, for which, in assay [1], the IC50 – broadly, the concentration that inhibits the measured activity by half – worked out at 630 nM.

For the compound “1,1′-[1-[1,1-bis(4-hydroxyphenyl)methylidene]trimethylene]ferrocene [Compound 4]”, the “proliferative effect based on the control” value in assay [2] is reported as 162%. For the same compound, the IC50 is ~4000 nM in assay [2], 80 nM in assay [1] and 940 nM in assay [3].

For “1,1′-[1-[(4-hydroxyphenyl)(phenyl)-methylidene]trimethylene]ferrocene [Compound 12]”, the 50% inhibitory concentration (IC50) in assay [1] amounted to 470 nM.

Turning to “1,1′-[2-[1,1-bis(4-hydroxyphenyl)methylidene]trimethylene]ferrocene [Compound 5]”, the IC50 was ~1000 nM in assay [2], 960 nM in assay [1] and 1080 nM in assay [3].

On to “1,2-[1-[1,1-bis(4-hydroxyphenyl)methylidene]tetramethylene]-ferrocene [Compound 9]”, for which the IC50 in assay [1] was found to be 500 nM.

With “1,2-[1-[1,1-bis(4-hydroxyphenyl)methylidene]trimethylene]ferrocene [Compound 8]”, the half-maximal inhibitory concentration (IC50) in assay [1] stood at 2700 nM.

With `C[C@]12CC[C@@H]3c4ccc(O)cc4CC[C@H]3[C@@H]1CC[C@@H]2O` [estradiol, reference compound], in assay [2], the “proliferative effect based on the control” value is 264%.

In the case of “(R)-1,1′-[1-[1,1-bis(4-hydroxyphenyl)methylidene]-3-methyltrimethylene]ferrocene [Compound 7]”, the IC50 in assay [1] stood at 780 nM.

On to “(S)-1,1′-[1-[1,1-bis(4-hydroxyphenyl)methylidene]-3-methyltrimethylene]ferrocene [Compound 6]”, for which, in assay [1], the IC50 amounted to 2700 nM.
